The values below come from US5330994A, “Tetrahydropyridine isoxazoline derivatives” (Warner-Lambert Company, priority 1992, dated 1994).

Where a name gives a salt, the structure may show the parent alone.

The test system of test [1] is muscarinic antagonist sites. The test can be described thus: Binding to muscarinic antagonist sites using [^3 H]quinuclidinyl benzylate (RQNB). Particulars: [^3 H]quinuclidinyl benzylate radioligand. On the procedure:
(§1) Sigma binding affinities are measured using [^3 H]-(+)-3-(3'-hydroxyphenyl)-N-(1'-propyl)-piperdine, referred to in the following Table I as 3PPP. This test is carried out according to the procedures of B. L. Largent, et al, Proc. Natl. Acad. Sci., USA, 1984; 81:5618. The ability of the compounds to bind muscarinic antagonist sites was determined invitro using [^3 H]quinuclidinyl benzylate (RQNB) according to the procedure of M. Watson, J. Pharmacol. Exp. Ther. 1986; 237-411.

The target of a further test is T1, sigma binding site (Rattus norvegicus, UniProt Q9R0C9).
T1 construct: from tissue
Put plainly: Sigma binding affinity using [^3 H]-(+)-3-(3'-hydroxyphenyl)-N-(1'-propyl)-piperdine (3PPP). Particulars: [^3 H]PPP radioligand. The method, then: as §1

T1 sequence (Q9R0C9 whole entry): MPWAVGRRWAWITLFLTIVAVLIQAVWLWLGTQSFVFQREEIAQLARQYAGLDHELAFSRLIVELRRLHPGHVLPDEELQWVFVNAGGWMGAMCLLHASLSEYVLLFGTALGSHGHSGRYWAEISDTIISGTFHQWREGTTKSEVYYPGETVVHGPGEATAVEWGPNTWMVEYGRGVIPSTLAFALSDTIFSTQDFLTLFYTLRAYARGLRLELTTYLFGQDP

For `CCCN1CCC=C(C2=NOC(c3ccccc3)C2)C1` (stereo not shown) [Example 1, 3-[3'-(1'-propyl-1', 2', 5', 6'-tetrahydropyridinyl)]-5-phenyl-2-isoxazoline], in test [1], the “RQNB % Inhibition @ 1 μM” value worked out at 10%. The IC50 (commonly the concentration at which inhibition is half-maximal) on sigma binding site is 7.05 nM.
Consider `CCCN1CCC=C(C2=NOC(c3ccc(OC)cc3)C2)C1` (stereo not shown) [Example 2, 3-[3'-(1'-Propyl-1', 2', 5', 6'-tetrahydropyridinyl) ]-5-(4'-methoxyphenyl)-2-isoxazoline], for which the “RQNB % Inhibition @ 1 μM” value in test [1] stood at 7%. Besides, at sigma binding site, the IC50 was 39.1 nM.
Regarding `CCCN1CCC=C(C2=NOC(c3ccc(Cl)cc3)C2)C1` (stereo not shown) [Example 3, 3-[3'-(1'-Propyl-1', 2', 5', 6'-tetrahydropyridinyl)]-5-(4'-chlorophenyl)-2-isoxazoline], the “RQNB % Inhibition @ 1 μM” value in test [1] was found to be 22%. This compound displayed an IC50 on sigma binding site of 1.03 nM.
On to `CCCN1CCC=C(c2cc(-c3ccccc3)no2)C1` [Example 4A, 3-phenyl-5-[3'-(1'-propyl-1', 2', 5', 6'-tetrahydropyridinyl)]isoxazole oxalate], for which, in test [1], the “RQNB % Inhibition @ 1 μM” value is on record as 10%. Also, at sigma binding site, the IC50 stood at 0.78 nM.
`CCCN1CCC=C(c2cc(-c3ccccc3)on2)C1` [Example 4B, 3-[3'-(1'-propyl-1', 2', 5', 6'-tetrahydropyridinyl)]-5-phenylisoxazole oxalate]: the “RQNB % Inhibition @ 1 μM” value in test [1] came to 4%. Also, the IC50 at sigma binding site is 8.8 nM.
Turning to `CCCN1CCC=C(c2cc(-c3ccc(C)cc3)no2)C1` [Example 5A, 3-(4'-Methylphenyl)-5-[3'-(1'-propyl-1', 2', 5', 6'-tetrahydropyridinyl)]isoxazole oxalate], the “RQNB % Inhibition @ 1 μM” value in test [1] was 10%. Besides, the IC50 on sigma binding site came to 0.067 nM.
Take `CCCN1CCC=C(c2cc(-c3ccc(C)cc3)on2)C1` [Example 5B, 3-[3'-(1'-propyl-1', 2', 5', 6'-tetrahydropyridinyl)]-5-(4'-methylphenyl)isoxazole oxalate]: in test [1], the “RQNB % Inhibition @ 1 μM” value came out at 6%. This compound yielded an IC50 on sigma binding site of 0.62 nM.
For `CCCN1CCC=C(c2cc(-c3cccc(OC)c3)no2)C1` [Example 6A, 3-(3'-Methoxyphenyl)-5-[3'-(1'-propyl-1', 2', 5', 6'-tetrahydropyridinyl)]isoxazole oxalate], the “RQNB % Inhibition @ 1 μM” value in test [1] is recorded as 15%. On sigma binding site, this compound returned an IC50 of 4 nM.
Consider `CCCN1CCC=C(c2cc(-c3cccc(OC)c3)on2)C1` [Example 6B, 3-[3'-(1'-propyl-1', 2', 5', 6'-tetrahydropyridinyl)]-5-(3'-methoxyphenyl)isoxazole oxalate], for which the “RQNB % Inhibition @ 1 μM” value in test [1] came out at 7%. The IC50 at sigma binding site turned out to be 0.1 nM.
For the compound `CCCN1CCC=C(c2cc(-c3cccc(C)c3)no2)C1` [Example 7A, 3-(3'-Methylphenyl)-5-[3'-(1'-propyl-1', 2', 5', 6'-tetrahydropyridinyl)]isoxazole oxalate], the “RQNB % Inhibition @ 1 μM” value in test [1] worked out at 10%. This compound had an IC50 on sigma binding site of 0.45 nM.
The like results for `CCCN1CCC=C(c2cc(-c3cccc(C)c3)on2)C1` [Example 7B, 3-[3'-(1'-propyl-1', 2', 5', 6'-tetrahydropyridinyl)]-5-(3'-methylphenyl)isoxazole oxalate] were, in that order, 10% and 9.9 nM.
Turning to `CCCN1CCC=C(c2cc(-c3ccccc3C)no2)C1` [Example 8A, 3-(2'-Methylphenyl)-5-[3'-(1'-propyl-1', 2', 5', 6'-tetrahydropyridinyl)]isoxazole oxalate], the “RQNB % Inhibition @ 1 μM” value in test [1] was found to be 40%. The compound also had a 50% inhibitory concentration (IC50) at sigma binding site of 3640 nM.
Regarding `CCCN1CCC=C(c2cc(-c3ccccc3C)on2)C1` [Example 8B, 3-[3'-(1'-propyl-1', 2', 5', 6'-tetrahydropyridinyl)]-5-(2'-methylphenyl)isoxazole oxalate], in test [1], the “RQNB % Inhibition @ 1 μM” value came to 12%. The compound also showed an IC50 on sigma binding site of 546 nM.
As to `CCCN1CCC=C(c2cc(-c3ccccc3OC)no2)C1` [Example 9A, 3-(2'-Methoxyphenyl)-5-[3'-(1'-propyl-1', 2', 5', 6'-tetrahydropyridinyl)]isoxazole oxalate], the “RQNB % Inhibition @ 1 μM” value in test [1] is 23%. On sigma binding site, this compound registered an IC50 above 10000 nM.
Consider `CCCN1CCC=C(c2cc(-c3ccccc3OC)on2)C1` [Example 9B, 3-[3'-(1'-propyl-1', 2', 5', 6'-tetrahydropyridinyl)]-5-(2'-methoxyphenyl)isoxazole oxalate], for which the “RQNB % Inhibition @ 1 μM” value in test [1] was 12%. The IC50 at sigma binding site stood at 10000 nM.
Take `CCCN1CCC=C(c2cc(-c3ccc(OC)cc3)no2)C1` [Example 14A, 3-(4'-Methoxyphenyl)-5-[3'-(1'-propyl-1', 2', 5', 6'-tetrahydropyridinyl)]isoxazole oxalate]: the “RQNB % Inhibition @ 1 μM” value in test [1] is on record as 11%. The IC50 on sigma binding site is 10000 nM.
For `CCCN1CCC=C(c2cc(-c3ccc(OC)cc3)on2)C1` [Example 14B, 3-[3'-(1'-propyl-1', 2', 5', 6'-tetrahydropyridinyl)]-5-(4'-methoxyphenyl)isoxazole oxalate], in test [1], the “RQNB % Inhibition @ 1 μM” value came out at 9%. The compound further returned an IC50 at sigma binding site of 1470 nM.
